Experimental data as given in patent publication US20070141109A1, “Local Deliver of 17-Beta Estradiol for Preventing Vascular Intimal Hyperplasia and for Improving Vascular Endothelium Function after Vascular Injury” (priority 1999, published 2007).
“Also recorded” adds a separate entry of the source.

Key:
[1] = rats, estimated; cited from earlier work
[2] = tested on: endothelium of injured coronary arteries; test: Reendothelialization by lectin Dolichos biflorus agglutinin immunohistochemistry; assay type: in vivo, pigs
Procedure: (§1) The animals were euthanized at 4 weeks. Under general anesthesia as described above, exsanguination was performed with replacement by 1 l of 0.9% NaCl solution. The heart was perfusion-fixed in vivo with 2 l of 10% buffered formalin at 200 mm Hg pressure. The heart was then removed, and the coronary arteries were harvested immediately. From the injured segment (identified in relation to side branches), serial sections of 3-5 mm were made, and stored in 10% buffered formalin solution. The sections were then treated with incremental concentrations of alcohol followed by treatment with xylene and paraffin. Slices of 6:m thickness were prepared, and stained with Verhoeff's stain for assessment of tissue response to injury. […] The % of reendothelialization and, the % of endothelial nitric oxide synthase (eNOS) expression were calculated as follows: (the total length of the luminal surface staining positively/the perimeter of the lumen)×100, respectively. Analysis was performed by an independent examiner with no knowledge of the treatment groups to which the sections belonged. […]

[3] = tested on: human umbilical vein endothelial cells; settings: HUVEC exposed to tumor necrosis factor; cited from earlier work
[4] = tested on: coronary arteries subjected to PTCA; test: Response to intracoronary acetylcholine by quantitative coronary angiography after PTCA; assay type: in vivo, pigs
Procedure: The study protocol was approved by the Animal Care and Ethical Research Committee of the Montreal Heart Institute. Juvenile farm pigs weighing 20-25 kg (1 female, and 8 castrated males) were used. On the day of the experiment, animals received 650 mg of acetylsalicylic acid and 30 mg of nifedipine orally, were premedicated with 6 mg/kg of tiletamine hydrochloride and zolazepam hydrochloride, and were given 0.05 mg of atropine intramuscularly. Under general anesthesia (a mixture of 1-1.5% isoflurane and oxygen enriched air), the right femoral artery was cannulated percutaneously. An 8 Fr arterial sheath was introduced, and […] of lidocaine and 250 U/kg of heparin were administered intra-arterially. Additional heparin was administered during PTCA if needed, to maintain an activated coagulation time of >300 seconds.
An 8 Fr right Amplatz guiding catheter and right Judkins guiding catheter were used for cannulation of the left and right coronary arteries, respectively. A standard balloon catheter (corresponding to a balloon/artery ratio of 1.1-1.3:1) was advanced over a 0.014″ floppy guide wire, and 3 successive 30-second inflations at 10 atm pressure were made with a 30 second interval between each inflation. PTCA was performed on all 3 coronary […] of each animal. For local delivery, the InfusaSleeve catheter (LocalMed Inc.) was used, which permits safe drug delivery with negligible additional injury (7). After balloon dilatation, each coronary artery of an animal was randomized to receive either 600:g of 17-beta estradiol (in 5 ml), vehicle alone (5 ml), or PTCA only. The vehicle 2-hydroxypropyl-beta-cyclodextrin (HPCD), and 17-beta estradiol were obtained from Sigma Chem. Co. For local delivery with the InfusaSleeve catheter, a proximal driving pressure of 10 atm and support balloon pressure of 6 atm were utilized.
All 9 animals underwent cardiac catheterization at the end of 4 weeks. After a baseline coronary angiogram, selective cannulation of the proximal portion of a coronary artery was performed with a single lumen balloon catheter (TotalCross, Schneider) for the administration of vasoactive agents. Acetylcholine (Ach) in increasing concentrations of 10^−7 M, 10^−6 M, 10^−5 M, 10^−4 M, was successively infused through the lumen port of the catheter. Each dose was administered for a duration of 3 minutes at a constant rate of 1 ml/min using an infusion pump. Coronary angiography was performed at the end of each dose. After infusion of the highest concentration of Ach (10^−4 M and angiography, 100:g of nitroglycerin was administered via the lumen port of the catheter, and a coronary angiogram performed. The same protocol was repeated for the other 2 coronary arteries. Heart rate, blood pressure, and ECG were monitored continuously throughout the experiment.
Coronary angiography was performed with a single plane imaging system (Electromed Intl). […] Care was taken to maintain the same angulation during angiography of a segment throughout the procedure. Ionic contrast (MD-76, Mallinckrodt Medical Inc) was used throughout the experiment. Images were captured at a frame speed of 30 frames/sec, and stored digitally. A segment of contrast-filled guiding catheter was included in every frame, for the purpose of calibration. Calibration was performed using the known diameter of the contrast-filled guiding catheter as the reference segment, to avoid error due to magnification. […]

[5] = tested on: proliferating SMC (PCNA-positive); test: PCNA immunohistochemistry of the proliferative response to injury; assay type: in vivo, pigs; settings: 7 days after PTCA
Procedure: Following slicing with a microtome and blocking of non-specific antibodies, the sections were treated with mouse anti-proliferating cell nuclear antigen (PCNA) antibodies and diluted biotinylated goat anti-mouse antibodies. They were then incubated with avidin-biotin (Elite ABC Kit, Vector Laboratories), and developed with 3,3′-diaminobenzidine (Vector Laboratories). They were finally counter-stained with hematoxylin. Porcine liver cells were used as a positive control. For each section, a 6 μm slice counter-stained with hematoxylin without treatment with the primary antibody (mouse anti-PCNA) served as a negative control. The proliferative response to injury was studied by immunohistochemical analysis of samples from animals euthanized at 7 days. The % proliferating SMC was obtained by dividing the number of PCNA-positive SMC by the total number of SMC in each field; separate measurements were made for neointima and media layers. The proliferating cells were identified as SMC by positive staining of parallel sections with a smooth muscle actin antibody. To standardize comparison among treatment groups, measurements were obtained at 4 fixed locations separated by 90° sites for each section, and the results averaged.

[6] = tested on: coronary arteries subjected to PTCA; test: Morphometric analysis of neointima hyperplasia after PTCA and local delivery; assay type: in vivo, pigs
Procedure: Eighteen juvenile farm pigs (9 female, and 9 castrated male) weighing 20-25 kg were studied. The study was approved by, and conducted in accordance with, the guidelines of the Animal Care and Ethical Research Committee of the Montreal Heart Institute. Before the procedure, animals were given 650 mg of acetylsalicylic acid and 30 mg of nifedipine orally, premedicated with intramuscular injection of 6 mg/kg of a mixture of tiletamine hydrochloride and zolazepam hydrochloride, and given 0.05 mg of atropine. The invasive procedure was performed under general anesthesia with a mixture of isoflurane (1 to 1.5%) and oxygen enriched air. The right femoral artery was cannulated percutaneously, and an 8 Fr arterial sheath was introduced. After arterial access had been obtained, 100 mg of lidocaine and 250 U/kg of heparin were administered intra-arterially via the sheath. Activated coagulation time was maintained at >300 seconds throughout the procedure. […] Standard PTCA equipment was used. An 8 Fr right Amplatz guiding catheter and right Judkins guiding catheter were used for cannulation of the left and right coronary arteries, respectively. PTCA was performed with a balloon size chosen to correspond to a balloon/artery ratio of 1.1-1.3. Three 30-second inflations at 10 atm pressure were performed with a 30-second interval between each inflation. Inflations were performed adjacent to major side branches to facilitate identification during harvesting, taking precaution not to include any side branch in the intended PTCA site. The left anterior descending, left circumflex, and right coronary arteries of each animal were subjected to PTCA. After PTCA, each coronary artery of an animal was randomized to receive either 600 μg of 17-beta estradiol locally, or vehicle alone locally, or PTCA only. The chemicals 17-beta estradiol and its vehicle 2-hydroxypropyl-beta-cyclodextrin (HPCD) were purchased from Sigma Chemical Co. The InfusaSleeve catheter (Local Med, Inc.) was used for local delivery.^12 Five ml of the designated substance was delivered at a driving pressure of 10 atm and support balloon pressure of 6 atm. Of the 18 animals, 2 died a few days after PTCA, and were excluded; thus, 16 animals were analyzed. Twelve animals were euthanized at 28 days, and 4 at 7 days. After premedication and anesthesia, the right internal jugular vein and common carotid artery were cannulated. Following cross-clamping of the descending thoracic aorta exposed via a left lateral thoracotomy, exsanguination was performed, with simultaneous administration of 1 l of 0.9% NaCl solution. The heart was perfusion-fixed in vivo with 2 l of 10% buffered formalin at 200 mm Hg pressure, removed from the animal, and placed in 10% buffered formalin solution. Coronary arteries were then dissected free from surrounding tissues. The site of PTCA was identified in relation to adjacent side branches, which served as landmarks. The injured segment was harvested with a 1 cm normal segment proximal and distal to the injured site. Serial sections 3 to 5 mm long were made from the harvested segment, with a minimum of at least 3 sections (maximum 5) from each PTCA site. Sections were stored in buffered 10% formalin and subjected to dehydration with increasing concentrations of alcohol, followed by treatment with xylene and paraffin. Each section was then cut to slices of 6 μm thickness with a microtome (Olympus cut 4060 E), and stained with Verhoeff's stain for morphometric analysis. Measurements were made with a video microscope (Leitz Diaplan, equipped with a Sony DXC 970 MD color video camera) linked to a 486 personal computer and customized software. A minimum of 3 sections for each injured segment were analyzed and results averaged. Analyses were made by a single observer unaware of the treatment group to which each segment had bee allocated. Randomly selected sections were viewed by a second observer (also blinded to protocol) independently; inter-observer variability was <5%. […]

[7] = tested on: endothelial nitric oxide synthase (eNOS); test: eNOS expression by immunohistochemistry; assay type: in vivo, pigs
Procedure: as §1

[8] = 600 μg locally after PTCA, 28 days, mean ± SD

**Q.** For `CC(O)COC[C@H]1O[C@@H]2O[C@H]3[C@H](O)[C@@H](O)[C@@H](O[C@H]4[C@H](O)[C@@H](O)[C@@H](O[C@H]5[C@H](O)[C@@H](O)[C@@H](O[C@H]6[C@H](O)[C@@H](O)[C@@H](O[C@H]7[C@H](O)[C@@H](O)[C@@H](O[C@H]8[C@H](O)[C@@H](O)[C@@H](O[C@H]1[C@H](O)[C@H]2O)O[C@@H]8COCC(C)O)O[C@@H]7COCC(C)O)O[C@@H]6COCC(C)O)O[C@@H]5COCC(C)O)O[C@@H]4COCC(C)O)O[C@@H]3COCC(C)O` (stereo partly drawn) [HPCD, 2-hydroxypropyl-beta-cyclodextrin], which “toxic dose (nephrotoxicity)” value [1] is on record?
**A.** 200 mg/kg

**Q.** Which Reendothelialization ([2]; 4 weeks after PTCA) does the source give for `C[C@]12CC[C@@H]3c4ccc(O)cc4CC[C@H]3[C@@H]1CC[C@@H]2O` [17-beta estradiol] here?
**A.** 90.6±5.5%

**Q.** And the “reendothelialization compared to PTCA only and vehicle” value ([2]; FIG. 4, in words)?
**A.** reendothelialization to a greater degree

**Q.** And the decrease in apoptosis [3]?
**A.** 50%

**Q.** And the “Diameter-basal (basal coronary artery diameter)” value ([4]; 4 weeks after PTCA and 600 μg locally)?
**A.** 2.53±0.6 mm

**Q.** What about the “Diameter-post Ach” value ([4]; Ach 10^−4M, 4 weeks) of the same compound?
**A.** 2.28±0.61 mm

**Q.** What about the “coronary artery diameter after nitroglycerin” value ([4]; after 10^−4 M Ach then nitroglycerin, 4 weeks) of the same compound?
**A.** 2.61±0.48 mm

**Q.** What about the “vasoconstrictive response to Ach” value ([4]; any Ach concentration used, in words) of the same compound?
**A.** no significant vasoconstrictive response

**Q.** What about the “changes in heart rate, ECG, or blood pressure” value ([4]; during the local delivery or intracoronary infusion of vasoactive agents) of the same compound?
**A.** No changes

**Q.** And the “% PCNA-positive SMC in the media” value [5]?
**A.** 0.4±0.3%

**Q.** What about the “% of PCNA-positive SMC in the neointima” value [5] of the same compound?
**A.** 0.43±0.52%

**Q.** And the “% neointima” value [6, 8]?
**A.** 12.16 ± 8.89%

**Q.** What about the “% stenosis” value [6, 8] of the same compound?
**A.** 15.67 ± 11.13%

**Q.** And the “EELref/EELinj (vascular remodeling)” value [6, 8]?
**A.** 1.01±0.16

**Q.** What about the Neointima area [6, 8] of the same compound?
**A.** 0.4 ± 0.3 mm^2

**Q.** What about the Neointima/Media area [6, 8] of the same compound?
**A.** 0.59 ± 0.48

**Q.** And the Restenotic index [6, 8]?
**A.** 1.3 ± 0.5

**Q.** And the “decrease of neointima formation” value ([6]; compared to PTCA only, 28 days)?
**A.** 54.6%

**Q.** What about the “decrease of neointima formation” value ([6]; compared to vehicle alone, 28 days) of the same compound?
**A.** 64.9%

**Q.** And the “performance of lower doses” value ([6]; doses of 200 and 400 μg, local)?
**A.** as performing as the dose of 600 μg

**Q.** And the “% neointima” value ([6]; female pigs)?
**A.** 8.29 ± 3.72%

**Q.** What about the “% stenosis” value ([6]; female pigs) of the same compound?
**A.** 11.09 ± 5.16%

**Q.** What about the Neointima area ([6]; female pigs) of the same compound?
**A.** 0.25 ± 0.15 mm^2

**Q.** And the Neointima/Media area ([6]; female pigs)?
**A.** 0.32 ± 0.16

**Q.** And the Restenotic index ([6]; female pigs, 5 segments)?
**A.** 1.37 ± 0.45

**Q.** What about the “neointima hyperplasia compared to PTCA only or vehicle alone” value ([6]; local delivery, 28 days, in words) of the same compound?
**A.** markedly less neointima hyperplasia; also recorded: significantly less neointima hyperplasia

**Q.** And the “% neointima” value ([6]; male pigs)?
**A.** 14.93 ± 10.68%

**Q.** And the “% stenosis” value ([6]; male pigs)?
**A.** 18.93 ± 13.39%

**Q.** And the Neointima area ([6]; male pigs)?
**A.** 0.51 ± 0.34 mm^2

**Q.** And the Neointima/Media area ([6]; male pigs)?
**A.** 0.78 ± 0.55

**Q.** And the Restenotic index ([6]; male pigs, 7 segments)?
**A.** 1.2 ± 0.59

**Q.** And the “Endothelial nitric oxide synthase expression” value ([7]; 4 weeks after PTCA)?
**A.** 35.6±11.8%

**Q.** What about the “expression of eNOS compared to PTCA only and vehicle” value ([7]; FIG. 5, in words) of the same compound?
**A.** greater expression of eNOS
